Measurements reported in patent US10357486B2, “Treatment of cognitive impairment with PDE4 inhibitor” (Universiteit Maastricht, priority 2013, dated 2019).

Key:
[1] = system: healthy adults (18 to 35 years); experiment: EEG Event Related Potentials (P600) during VLT in healthy adults; type: in vivo, human; conditions: single oral dose of 100 mcg
Description: Event Related Potential Analysis An electroencephalogram (EEG) cap was used to place a set of 32 EEG electrodes according to the international 10-20 system on the subjects. Event Related Potentials (ERPs) were extracted by averaging the responses within an epoch of 100 ms before and 1000 ms after stimulus onset covering P300, N400, and P600. Separate averages were made for correct and incorrect responses within a task and for different trial types. EEG measurements were done simultaneously with VLT testing. ERPs were calculated from the words that were called during immediate recall (encoding), and from the words that were recognized and from those that were not during the recognition condition at 45 minutes. The ERP components of P300, N400, and P600 were compared to examine whether the initial stimulus processing during the learning trials differs from word to word. Finally, ERPs to the old and new items during the recognition task were measured.
Tests of Within-Subjects Contrasts were regarded for immediate and delayed free recall scores and for the summed immediate recall score (i.e. immediate 1+immediate 2+immediate 3). The factor Treatment (4 levels; placebo, roflumilast 100 mcg, roflumilast 300 mcg and roflumilast 1000 mcg) was included as a within subjects factor. […] Peak and latency values of three memory related ERP's were analysed; i.e. P300, N400 and P600. […]

[2] = system: healthy adults (18 to 35 years); experiment: Spatial Memory Task, Stroop task and Continuous Performance task in healthy adults; type: in vivo, human; conditions: 100 mcg, 300 mcg, 1000 mcg single administration
Method: In addition to the VLT (immediate recall and delayed recall), the subjects were also tested in the Spatial Memory Task, the Stroop task and the Continuous Performance task (a description of these additional cognitive battery tests can be found in Example 3).
Spatial memory task (SMT) The spatial memory task assesses spatial memory and is based on the object relocation task by Postma and colleagues (Kessels, Postma et al, Behav Res Methods Instrum Comput. 1999, Vol 31(3) pp 423-428). It consists of one immediate and two delayed conditions. In the immediate condition, a set of 10 pictures will be presented one by one on different locations within a white square on a computer screen. All pictures are everyday, easy-to-name objects, presented in gray scale (±3.5×5 cm). Each picture will be presented for 2000 msec with an interstimulus interval of 1000 msec. […]
Twenty-four hours after the immediate condition, subjects will return to the lab and perform the task again. […] As with the other tests, the EEG will be recorded during this task and this will later be analysed. No EEG will be recorded during the 24h-measurement. […]
Stroop task The Stroop task is well known for its ability to induce interference, and assesses response inhibition and focused attention. […] However, because of the urge to read the printed words (even if one is asked to ignore them) interference occurs. […]

Structure (SMILES): O=C(Nc1c(Cl)cncc1Cl)c1ccc(OC(F)F)c(OCC2CC2)c1 [roflumilast, N-(3,5-dichloropyridin-4-yl)-3-cyclopropylmethoxy-4-difluoromethoxybenzamide]
- amplitude of Event-Related Potential P600 during VLT [1]: strongest increase of amplitude
- amplitude of Event-Related Potential P600 during VLT ([1]; listed as Roflumilast): increased amplitude
- difference between placebo and drug treatment in the Spatial Memory Task, the Stroop task and the Continuous Performance task [2]: No statistically significant differences
